According to patent US5395947A, “Platinum(II) complex and processes for preparing the same” (Sunkyong Industries, Ltd., priority 1991, dated 1995):

Assays:
[1] = system: murine leukemia L1210 cells; experiment: Growth inhibition test on cultured murine leukemia L1210 cells; assay type: cell-based; conditions: 48 hours, 37° C., Trypan blue viability
Summary of the method: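 Read-out is Trypan blue (0.17%) viability versus compound-free controls. Cells, 1×10^5, were cultured 48 h at 37° C under 5% CO2 in RPMI 1640/10% FCS containing various compound concentrations.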

murine leukemia L1210 = experiment: Antitumor activity test on murine leukemia L1210 in vivo; set-up: species or system male BDF1 mice; conditions: days 1, 5, 9
Summary of the method: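 Male BDF1 mice (6 weeks, 21±3 g; n=7) received 1×10^6 leukemia cells into the peritoneum on day 0, then test compound suspended or dissolved in 0.5% CMC i.p. on days 1, 5, 9. Activity expressed as T/C %, mean survival treated versus 0.5% CMC-injected controls.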

[2] = Test for water solubility; assay type: physicochemical; conditions: water
Excerpt: 3. Test for water solubility
A standard plot of UV absorbance(220 nm) vs. concentration was made; and employed to determine water-solubility.
The mixture was then passed through a 0.45 micron disposable membrane filter before dilution and UV measurement.

ICR mice = experiment: Acute toxicity test; assay type: in vivo; set-up: Lethality: unit not given here; conditions: for Lethality: 10080 min
Summary of the method: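 Single i.p. administration to ICR mice (7 weeks old, both sexes, n=6/group); appearance and mortality logged over 7 days, dead animals autopsied for gross pathology.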

In the case of `CCC1(C)OC2C[NH2+][Pt-2]3([NH2+]CC2O1)[O]CC(=O)[O]3` [Example 9, (glycolato-O,O')[(4R,5R)-4,5-bis(aminomethyl)-2-ethyl-2-methyl-1,3-dioxolane]platinum(II)], the “IC50 (concentration required for 50% inhibition of growth)” value [1] is reported as 0.08 µg/mL, the “T/C (%)” value (murine leukemia L1210; 3.1 mg/kg i.p.) is reported as 148% and the “T/C (%)” value (murine leukemia L1210; 6.2 mg/kg i.p.) is reported as 187%. For the same compound, the “T/C (%)” value (murine leukemia L1210; 12.5 mg/kg i.p.) was 231%, the “T/C (%)” value (murine leukemia L1210; 25 mg/kg i.p.) was “toxic” and the “T/C (%)” value (murine leukemia L1210; 50 mg/kg i.p.) was “toxic”. The Solubility in water [2] was 11600 µg/mL, the “Number of dead mice for 7 days” value (ICR mice; female, 41.3 mg/kg i.p.) was 2/6 and the “Number of dead mice, 1st day” value (ICR mice; female, 41.3 mg/kg i.p.) was 0/6. For the same compound, the “Number of dead mice, 4th day” value (ICR mice; female, 41.3 mg/kg i.p.) was 2/6, the Lethality (ICR mice; female, 41.3 mg/kg i.p.) was 0.0 and the “Number of dead mice for 7 days” value (ICR mice; female, 54.9 mg/kg i.p.) was 4/6. The “Number of dead mice, 1st day” value (ICR mice; female, 54.9 mg/kg i.p.) was 0/6, the “Number of dead mice, 3rd day” value (ICR mice; female, 54.9 mg/kg i.p.) was 1/6 and the “Number of dead mice, 4th day” value (ICR mice; female, 54.9 mg/kg i.p.) was 3/5. For the same compound, the Lethality (ICR mice; female, 54.9 mg/kg i.p.) was 50.0, the “Number of dead mice for 7 days” value (ICR mice; female, 71.4 mg/kg i.p.) was 5/6 and the “Number of dead mice, 1st day” value (ICR mice; female, 71.4 mg/kg i.p.) was 0/6. The “Number of dead mice, 3rd day” value (ICR mice; female, 71.4 mg/kg i.p.) was 1/6, the “Number of dead mice, 4th day” value (ICR mice; female, 71.4 mg/kg i.p.) was 3/5 and the “Number of dead mice, 5th day” value (ICR mice; female, 71.4 mg/kg i.p.) was 1/2. For the same compound, the Lethality (ICR mice; female, 71.4 mg/kg i.p.) was 83.7, the “Number of dead mice for 7 days” value (ICR mice; female, 91.8 mg/kg i.p.) was 6/6 and the “Number of dead mice, 1st day” value (ICR mice; female, 91.8 mg/kg i.p.) was 0/6. The “Number of dead mice, 3rd day” value (ICR mice; female, 91.8 mg/kg i.p.) was 2/6, the “Number of dead mice, 4th day” value (ICR mice; female, 91.8 mg/kg i.p.) was 4/4 and the Lethality (ICR mice; female, 91.8 mg/kg i.p.) was 100.0. For the same compound, the “Number of dead mice for 7 days” value (ICR mice; male, 41.3 mg/kg i.p.) was 0/6, the “Number of dead mice, 1st day” value (ICR mice; male, 41.3 mg/kg i.p.) was 0/6 and the “Number of dead mice, 4th day” value (ICR mice; male, 41.3 mg/kg i.p.) was 2/6. For the same compound, the “Number of dead mice, 5th day” value (ICR mice; male, 41.3 mg/kg i.p.) was 1/4, the Lethality (ICR mice; male, 41.3 mg/kg i.p.) was 0.0 and the “Number of dead mice for 7 days” value (ICR mice; male, 54.9 mg/kg i.p.) was 4/6. For the same compound, the “Number of dead mice, 1st day” value (ICR mice; male, 54.9 mg/kg i.p.) was 0/6, the “Number of dead mice, 4th day” value (ICR mice; male, 54.9 mg/kg i.p.) was 2/6 and the “Number of dead mice, 5th day” value (ICR mice; male, 54.9 mg/kg i.p.) was 2/4. The Lethality (ICR mice; male, 54.9 mg/kg i.p.) was 66.7, the “Number of dead mice for 7 days” value (ICR mice; male, 71.4 mg/kg i.p.) was 5/6 and the “Number of dead mice, 1st day” value (ICR mice; male, 71.4 mg/kg i.p.) was 0/6. For the same compound, the “Number of dead mice, 4th day” value (ICR mice; male, 71.4 mg/kg i.p.) was 1/6, the “Number of dead mice, 5th day” value (ICR mice; male, 71.4 mg/kg i.p.) was 2/5 and the “Number of dead mice, 6th day” value (ICR mice; male, 71.4 mg/kg i.p.) was 2/3. The Lethality (ICR mice; male, 71.4 mg/kg i.p.) was 83.3, the “Number of dead mice for 7 days” value (ICR mice; male, 91.8 mg/kg i.p.) was 6/6 and the “Number of dead mice, 1st day” value (ICR mice; male, 91.8 mg/kg i.p.) was 0/6. The “Number of dead mice, 2nd day” value (ICR mice; male, 91.8 mg/kg i.p.) was 1/6, the “Number of dead mice, 3rd day” value (ICR mice; male, 91.8 mg/kg i.p.) was 4/5 and the “Number of dead mice, 4th day” value (ICR mice; male, 91.8 mg/kg i.p.) was 1/1. For the same compound, the Lethality (ICR mice; male, 91.8 mg/kg i.p.) was 100.0.

For `CC1[O][Pt][O]C1=O.NCC1OC2(CCCC2)OC1CN` [Example 15, (L-lactato-O,O')[(4R,5R)-4,5-bis(aminomethyl)-1,3-dioxolane-2-spiro-1'-cyclopentane]platinum(II)], the “IC50 (concentration required for 50% inhibition of growth)” value [1] was 0.33 µg/mL, the “T/C (%)” value (murine leukemia L1210; 12.5 mg/kg i.p.) was 225% and the “T/C (%)” value (murine leukemia L1210; 25 mg/kg i.p.) was 243%. For the same compound, the “T/C (%)” value (murine leukemia L1210; 50 mg/kg i.p.) was 192%, the Solubility in water [2] was 4900 µg/mL and the “Number of dead mice for 7 days” value (ICR mice; female, 41.3 mg/kg i.p.) was 0/6. For the same compound, the “Number of dead mice, 1st day” value (ICR mice; female, 41.3 mg/kg i.p.) was 0/6, the Lethality (ICR mice; female, 41.3 mg/kg i.p.) was 0.0 and the “Number of dead mice for 7 days” value (ICR mice; female, 54.9 mg/kg i.p.) was 3/6. The “Number of dead mice, 1st day” value (ICR mice; female, 54.9 mg/kg i.p.) was 0/6, the “Number of dead mice, 3rd day” value (ICR mice; female, 54.9 mg/kg i.p.) was 1/6 and the “Number of dead mice, 4th day” value (ICR mice; female, 54.9 mg/kg i.p.) was 1/5. For the same compound, the “Number of dead mice, 5th day” value (ICR mice; female, 54.9 mg/kg i.p.) was 1/4, the Lethality (ICR mice; female, 54.9 mg/kg i.p.) was 50.0 and the “Number of dead mice for 7 days” value (ICR mice; female, 71.4 mg/kg i.p.) was 5/6. For the same compound, the “Number of dead mice, 1st day” value (ICR mice; female, 71.4 mg/kg i.p.) was 0/6, the “Number of dead mice, 4th day” value (ICR mice; female, 71.4 mg/kg i.p.) was 1/6 and the “Number of dead mice, 5th day” value (ICR mice; female, 71.4 mg/kg i.p.) was 3/5. The “Number of dead mice, 6th day” value (ICR mice; female, 71.4 mg/kg i.p.) was 1/2, the Lethality (ICR mice; female, 71.4 mg/kg i.p.) was 83.7 and the “Number of dead mice for 7 days” value (ICR mice; female, 91.8 mg/kg i.p.) was 6/6. The “Number of dead mice, 1st day” value (ICR mice; female, 91.8 mg/kg i.p.) was 0/6, the “Number of dead mice, 2nd day” value (ICR mice; female, 91.8 mg/kg i.p.) was 1/6 and the “Number of dead mice, 3rd day” value (ICR mice; female, 91.8 mg/kg i.p.) was 2/5. The “Number of dead mice, 4th day” value (ICR mice; female, 91.8 mg/kg i.p.) was 2/3, the “Number of dead mice, 5th day” value (ICR mice; female, 91.8 mg/kg i.p.) was 1/1 and the Lethality (ICR mice; female, 91.8 mg/kg i.p.) was 100.0. For the same compound, the “Number of dead mice for 7 days” value (ICR mice; male, 41.3 mg/kg i.p.) was 0/6, the “Number of dead mice, 1st day” value (ICR mice; male, 41.3 mg/kg i.p.) was 0/6 and the Lethality (ICR mice; male, 41.3 mg/kg i.p.) was 0.0. For the same compound, the “Number of dead mice for 7 days” value (ICR mice; male, 54.9 mg/kg i.p.) was 4/6, the “Number of dead mice, 1st day” value (ICR mice; male, 54.9 mg/kg i.p.) was 0/6 and the “Number of dead mice, 3rd day” value (ICR mice; male, 54.9 mg/kg i.p.) was 2/6. For the same compound, the “Number of dead mice, 6th day” value (ICR mice; male, 54.9 mg/kg i.p.) was 2/4, the Lethality (ICR mice; male, 54.9 mg/kg i.p.) was 66.7 and the “Number of dead mice for 7 days” value (ICR mice; male, 71.4 mg/kg i.p.) was 5/6. For the same compound, the “Number of dead mice, 1st day” value (ICR mice; male, 71.4 mg/kg i.p.) was 0/6, the “Number of dead mice, 4th day” value (ICR mice; male, 71.4 mg/kg i.p.) was 4/6 and the “Number of dead mice, 5th day” value (ICR mice; male, 71.4 mg/kg i.p.) was 1/2. The Lethality (ICR mice; male, 71.4 mg/kg i.p.) was 83.3, the “Number of dead mice for 7 days” value (ICR mice; male, 91.8 mg/kg i.p.) was 6/6 and the “Number of dead mice, 1st day” value (ICR mice; male, 91.8 mg/kg i.p.) was 0/6. The “Number of dead mice, 2nd day” value (ICR mice; male, 91.8 mg/kg i.p.) was 2/6, the “Number of dead mice, 3rd day” value (ICR mice; male, 91.8 mg/kg i.p.) was 3/4 and the “Number of dead mice, 4th day” value (ICR mice; male, 91.8 mg/kg i.p.) was 1/1. For the same compound, the Lethality (ICR mice; male, 91.8 mg/kg i.p.) was 100.0.
